Assay results from patent US11077100B2, “Tetrahydroquinoline derivatives as P2X7 receptor antagonists” (RaQualia Pharma Inc., priority 2017, dated 2021).

Experiments:
[1] = molecular target: rat P2X7 (Rattus norvegicus (Rat), UniProt Q64663); experiment: Rat P2X7 functional assay (Ca2+ influx, Fluo-4, FDSS); assay type: cell-based; conditions: HEK293 cells stably expressing rat P2X7; BzATP final 10 microM; 7-point dose-response; read-out: Antagonistic activities with respect to the rat P2X7 receptor (IC50)
Chain of rat P2X7 (Q64663 whole entry): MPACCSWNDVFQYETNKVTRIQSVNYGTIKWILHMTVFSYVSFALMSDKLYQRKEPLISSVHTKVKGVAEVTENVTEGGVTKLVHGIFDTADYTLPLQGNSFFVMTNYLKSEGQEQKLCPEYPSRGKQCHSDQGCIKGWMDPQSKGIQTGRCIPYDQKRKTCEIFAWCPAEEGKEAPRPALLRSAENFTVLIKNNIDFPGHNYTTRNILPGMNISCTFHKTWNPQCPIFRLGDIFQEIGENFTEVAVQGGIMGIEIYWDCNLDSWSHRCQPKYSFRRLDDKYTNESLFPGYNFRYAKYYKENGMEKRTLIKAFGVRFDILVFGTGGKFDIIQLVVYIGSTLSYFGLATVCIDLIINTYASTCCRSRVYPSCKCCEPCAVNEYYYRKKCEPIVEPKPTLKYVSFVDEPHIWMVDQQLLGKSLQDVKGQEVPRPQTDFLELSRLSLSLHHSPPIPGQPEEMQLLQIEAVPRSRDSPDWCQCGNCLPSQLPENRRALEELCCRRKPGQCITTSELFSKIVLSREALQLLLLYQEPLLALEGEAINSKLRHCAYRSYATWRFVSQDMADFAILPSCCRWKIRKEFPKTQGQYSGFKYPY
Description: Rat P2X7 Functional Assay
The functional activity of compounds was determined by measuring changes in intracellular calcium concentration using a Ca^2+-sensitive fluorescent dye, Fluo-4 (Molecular Probes). The changes in fluorescent signal were monitored by the cell imaging technology by Hamamatsu Photonics's Functional Drug Screening System (FDSS). Increases in intracellular Ca^2+ concentration were readily detected upon activation with BzATP.
HEK293 cells stably expressing rat P2X7 (GenBank accession number NM_019256) were grown in Corning CellBIND cell culture flasks, in a 5% CO2 humidified incubator to about 80% confluence. Media composition consisted of Dulbecco's Modified Eagle Medium (high glucose), 10% fetal bovine serum ([…]), 100 units/[…] Penicillin, 100 microg/mL Streptomycin and 250 microg/mL Geneticine.
1. […] Plate-out HEK293-rat P2X7 cells (40 microL medium containing 5,000 cells per well) into poly-D-lysine coated 384-well plates (BD Falcon) at 24 h prior to assay.
2. Incubate at 37° C. in 5% CO2.
3. Incubate the plate at 37° C. in 5% CO2 for 1 h.
5. Test compounds were prepared at 100× the test concentration in DMSO by serial dilution with Biomek-FX liquid handling instrument. 33× diluted compound solutions in assay buffer were prepared in intermediate compound plate with Biomek-NX liquid handling instrument. A further 3× dilution occurred in below steps 6 and 7.
6. Add 20 microL of 33× diluted compound solutions into each well and leave the plate for 10 min under the dark at room temperature.
7. Measure activity by FDSS as follows: • Set the assay plate on the stacker of FDSS. • Start the detection of fluorescence intensity at 540 nm by 480 nm exicitation. • After 30 seconds, add 20 microL of assay buffer containing 30 microM BzATP (final 10 microM).
IC50 values for compounds of the present invention were determined from 7-point dose-response studies. Curves were generated using the average of duplicate wells for each data point. Finally, the IC50 values are calculated with the best-fit dose curve determined by XLfit (ID Business Solutions Ltd.).

[2] = molecular target: human P2X7 (Homo sapiens (Human), UniProt Q99572); experiment: Human P2X7 functional assay (Ca2+ influx, Fluo-4, FDSS); assay type: cell-based; conditions: antagonistic activity with respect to the human P2X7 receptor; BzATP final concentration 80 microM
Chain of human P2X7 (Q99572 whole entry): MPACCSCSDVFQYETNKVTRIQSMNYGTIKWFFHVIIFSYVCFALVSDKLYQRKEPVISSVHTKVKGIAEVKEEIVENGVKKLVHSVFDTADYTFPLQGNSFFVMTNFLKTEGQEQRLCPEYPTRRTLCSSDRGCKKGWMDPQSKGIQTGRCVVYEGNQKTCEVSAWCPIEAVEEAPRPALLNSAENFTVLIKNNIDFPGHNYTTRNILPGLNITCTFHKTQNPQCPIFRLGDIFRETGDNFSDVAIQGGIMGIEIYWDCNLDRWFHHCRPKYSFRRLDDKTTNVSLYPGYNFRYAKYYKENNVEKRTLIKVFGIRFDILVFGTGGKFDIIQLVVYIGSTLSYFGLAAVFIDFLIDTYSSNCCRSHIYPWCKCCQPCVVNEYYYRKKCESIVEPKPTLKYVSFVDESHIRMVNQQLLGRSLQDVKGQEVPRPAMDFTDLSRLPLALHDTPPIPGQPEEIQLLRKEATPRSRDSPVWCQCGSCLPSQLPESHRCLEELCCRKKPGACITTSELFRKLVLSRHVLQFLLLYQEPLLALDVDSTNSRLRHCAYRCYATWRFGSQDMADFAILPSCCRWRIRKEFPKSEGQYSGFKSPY
How it was run: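 HEK293 cells stably expressing C-terminally FLAG-tagged human P2X7, loaded with Fluo-4. Compounds were preincubated for 10 min at room temperature, then 80 μM BzATP (final) was added and Ca2+ fluorescence read at 540 nm (480 nm excitation) by FDSS. IC50 values come from 7-point curves, duplicate wells.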

Row | Compound | IC50 [1] | IC50 [2]
1 | O=C(NCc1c(F)cc(Cl)cc1Cl)[C@]1(F)CC[C@@](O)(CO)c2ncccc21 [Example 310, (5S,8S)-N-(2,4-dichloro-6-fluorobenzyl)-5-fluoro-8-hydroxy-8-(hydroxymethyl)-5,6,7,8-tetrahydroquinoline-5-carboxamide] | < 1000 nM | < 50 nM
2 | C=C1CC(C(=O)NCc2c(C)cc(Cl)cc2Cl)c2cccnc21 (stereo not drawn) [Example 11, N-(2,4-dichloro-6-methyl-benzyl)-7-methylene-6,7-dihydro-5H-cyclopenta [b]pyridine-5-carboxamide] | < 1000 nM | < 50 nM
3 | O=C(NCc1cccc(C(F)(F)F)c1Cl)C1CCC(O)c2ncccc21 (stereo not drawn) [Example 7, N-(2-chloro-3-(trifluoromethyl)benzyl)-8-hydroxy-5,6,7,8-tetrahydro-quinoline-5-carboxamide] | < 1000 nM | < 50 nM
4 | NC(=O)CC1CCC(C(=O)NCc2cccc(C(F)(F)F)c2Cl)c2cccnc21 (stereo not drawn) [Example 32, (2-amino-2-oxoethyl)-N-(2-chloro-3-(trifluoro-methyl)benzyl)-5,6,7,8-tetra-hydroquinoline-5-carboxamide] | < 1000 nM | –
5 | Cc1cc(Cl)cc(Cl)c1CNC(=O)C1(F)CCC(O)(CO)c2ncccc21 (stereo not drawn) [Example 34, N-(2,4-dichloro-6-methylbenzyl)-5-fluoro-8-hydroxy-8-(hydroxymethyl)-5,6,7,8-tetrahydroquinoline-5-carboxamide] | < 1000 nM | < 50 nM
6 | O=C(NCc1cccc(C(F)(F)F)c1F)[C@]1(F)CC[C@H](O)c2ncccc21 [Example 175, (5S,8S)-5-fluoro-N-(2-fluoro-3-(trifluoromethyl)benzyl)-8-hydroxy-5,6,7,8-tetrahydroquinoline-5-carboxamide] | < 1000 nM | –
7 | C[C@]1(O)CC[C@@](F)(C(=O)NC2CC2c2ccc(Cl)cc2Cl)c2cccnc21 (stereo partly drawn) [Example 273, (5S,8S)-N-((trans)-2-(2,4-dichlorophenyl)cyclopropyl)-5-fluoro-8-hydroxy-8-methyl-5,6,7,8-tetrahydroquinoline-5-carboxamide] | < 1000 nM | –
8 | Cc1cccc(Cl)c1CNC(=O)[C@]1(F)CC[C@H](O)c2ncccc21 [Example 161, (5S,8S)-N-(2-chloro-6-methylbenzyl)-5-fluoro-8-hydroxy-5,6,7,8-tetrahydroquinoline-5-carboxamide] | < 1000 nM | –
9 | Cc1cc(Cl)cc(Cl)c1CNC(=O)[C@]1(F)CC[C@H](O)c2ncccc21 [Example 127, (5S,8S)-N-(2,4-dichloro-6-methylbenzyl)-fluoro-8-hydroxy-5,6,7,8-tetrahydroquinoline-5-carboxamide] | < 1000 nM | –
10 | Cc1cc(Cl)cc(Cl)c1CNC(=O)[C@@]1(F)CC[C@@H](O)c2ncccc21 [Example 126, (5R,8R)-N-(2,4-dichloro-6-methylbenzyl)-5-fluoro-8-hydroxy-5,6,7,8-tetrahydroquinoline-5-carboxamide] | < 1000 nM | –
11 | CO[C@H]1CC[C@@](F)(C(=O)NCc2c(F)cc(Cl)cc2Cl)c2cccnc21 [Example 335, (5S,8S)-N-(2,4-dichloro-6-fluorobenzyl)-5-fluoro-8-methoxy-5,6,7,8-tetrahydroquinoline-5-carboxamide] | < 1000 nM | –
12 | O=C(NCc1c(F)cc(Cl)cc1Cl)[C@]1(F)CC[C@H](O)c2ncccc21 [Example 152, (5S,8S)-N-(2,4-dichloro-6-fluorobenzyl)-5-fluoro-8-hydroxy-5,6,7,8-tetrahydroquinoline-5-carboxamide] | < 1000 nM | –
13 | C[C@]1(O)CC[C@@](F)(C(=O)NCc2c(F)cc(Cl)cc2Cl)c2cccnc21 [Example 265, (5S,8S)-N-(2,4-dichloro-6-fluorobenzyl)-5-fluoro-8-hydroxy-8-methyl-5,6,7,8-tetrahydroquinoline-5-carboxamide] | < 1000 nM | –
14 | O=C(NCc1c(Cl)cc(Cl)cc1CO)C1CCC(O)c2ncccc21 (stereo not drawn) [Example 9, N-(2,4-dichloro-6-(hydroxy-methyl)benzyl)-8-hydroxy-5,6,7,8-tetrahydroquinoline-carboxamide] | < 1000 nM | –

Further lines, results first:

Row | IC50 [1] | IC50 [2] | Compound
15 | < 1000 nM | < 50 nM | O=C(NCc1ccc(F)cc1Cl)[C@]1(F)CC[C@@](O)(CSCCO)c2ncccc21 [Example 289, (5S,8S)-N-(2-chloro-4-fluorobenzyl)-5-fluoro-8-hydroxy-8-(((2-hydroxyethyl)thio)methyl)-5,6,7,8-tetrahydroquinoline-5-carboxamide]
16 | < 1000 nM | 101 to 300 nM | O=C(NCc1ccc(F)c(F)c1F)[C@]1(F)CC[C@@](O)(CO)c2ncccc21 [Example 308, (5S,8S)-5-fluoro-8-hydroxy-8-(hydroxymethyl)-N-(2,3,4-trifluorobenzyl)-5,6,7,8-tetrahydroquinoline-5-carboxamide]
17 | < 1000 nM | < 50 nM | C[C@]1(O)CC[C@@](F)(C(=O)NCc2c(Cl)cc(F)cc2CO)c2cccnc21 [Example 262, (5S,8S)-N-(2-chloro-4-fluoro-6-(hydroxymethyl)benzyl)-5-fluoro-8-hydroxy-8-methyl-5,6,7,8-tetrahydroquinoline-5-carboxamide]
18 | < 1000 nM | 50 to 100 nM | O=C1CC[C@@](F)(C(=O)NCc2ccc(F)cc2Cl)c2cccnc21 [Example 249, (S)-N-(2-chloro-4-fluorobenzyl)-5-fluoro-8-oxo-5,6,7,8-tetra-hydroquinoline-5-carboxamide]
19 | < 1000 nM | < 50 nM | Cc1ccc(CNC(=O)[C@]2(F)CC[C@H](O)c3ncccc32)c(Cl)c1 [Example 167, (5S,8S)-N-(2-chloro-4-methylbenzyl)-5-fluoro-8-hydroxy-5,6,7,8-tetrahydroquinoline-5-carboxamide]
20 | < 1000 nM | < 50 nM | Cc1cc(Cl)cc(Cl)c1CNC(=O)C1(F)CCC(=O)c2ncccc21 (stereo not drawn) [Example 12, N-(2,4-dichloro-6-methylbenzyl)-5-fluoro-8-oxo-5,6,7,8-tetrahydroquinoline-5-carboxamide]
21 | < 1000 nM | 101 to 300 nM | C[C@@]1(O)CC[C@@](F)(C(=O)NCc2ccc(Cl)cc2Cl)c2cccnc21 [Example 257, (5S,8R)-N-(2,4-dichlorobenzyl)-5-fluoro-8-hydroxy-8-methyl-5,6,7,8-tetrahydroquinoline-5-carboxamide]
22 | < 1000 nM | < 50 nM | O=C(NCc1ccc(F)cc1Cl)[C@]1(F)CC[C@H](O)c2ncc(F)cc21 [Example 242, (5S,8S)-N-(2-chloro-4-fluorobenzyl)-3,5-difluoro-8-hydroxy-5,6,7,8-tetrahydroquinoline-5-carboxamide]
23 | < 1000 nM | 301 to 1000 nM | O=C(NCc1ccc(F)cc1F)[C@]1(F)CC[C@@](O)(CO)c2ncccc21 [Example 318, (5S,8S)-N-(2,4-difluorobenzyl)-5-fluoro-8-hydroxy-8-(hydroxymethyl)-5,6,7,8-tetrahydroquinoline-5-carboxamide]
24 | < 1000 nM | – | C[C@]1(O)CC[C@@](F)(C(=O)NCc2c(F)cc(F)cc2Cl)c2cccnc21 [Example 266, (5S,8S)-N-(2-chloro-4,6-difluorobenzyl)-5-fluoro-8-hydroxy-8-methyl-5,6,7,8-tetrahydroquinoline-5-carboxamide]
25 | < 1000 nM | – | CS(=O)(=O)C1CC[C@@](F)(C(=O)NCc2ccc(Cl)cc2Cl)c2cccnc21 (stereo partly drawn) [Example 350]
26 | < 1000 nM | – | O=C(NCc1ccc(F)c(F)c1Cl)[C@]1(F)CC[C@H](O)c2ncccc21 [Example 174, (5S,8S)-N-(2-chloro-3,4-difluorobenzyl)-5-fluoro-8-hydroxy-5,6,7,8-tetrahydroquinoline-5-carboxamide]
27 | < 1000 nM | – | C[C@]1(O)CC[C@@](F)(C(=O)NCc2ccc(Cl)c(F)c2F)c2cccnc21 [Example 267, (5S,8S)-N-(4-chloro-2,3-difluorobenzyl)-5-fluoro-8-hydroxy-8-methyl-5,6,7,8-tetrahydroquinoline-5-carboxamide]
28 | < 1000 nM | – | O=C(NCc1ccc(C(F)(F)F)cc1Cl)[C@]1(F)CC[C@H](O)c2ncccc21 [Example 187, (5S,8S)-N-(2-chloro-4-(trifluoromethyl)benzyl)-5-fluoro-8-hydroxy-5,6,7,8-tetrahydroquinoline-5-carboxamide]
29 | < 1000 nM | – | O=C(NCc1ccc(F)cc1C(F)(F)F)[C@]1(F)CC[C@H](O)c2ncccc21 [Example 144, (5S,8S)-5-fluoro-N-(4-fluoro-2-(trifluoromethyl)benzyl)-8-hydroxy-5,6,7,8-tetrahydroquinoline-5-carboxamide]
